Activity calls are given as the source filed them. The calls are words filed in the database; no cut-off is given here.
Tests used:
Bacteria [1] = test: Inhibition of bacterial metallo-beta-lactamase L1 expressed in Escherichia coli […] cells at 500 uM using imipenem as substrate by UV spectrometry
[2] = Inhibition of bacterial ImiS expressed in Escherichia coli BL21 (DE3) transformed cells using imipenem as substrate by UV spectrometry; parameters: species or system Bacteria
Bacteria [3] = test: Inhibition of bacterial NDM1 expressed in Escherichia coli DH5R transformed cells at 500 uM using imipenem as substrate by UV spectrometry
Bacteria [4] = test: Inhibition of bacterial NDM1 expressed in Escherichia coli BL21 (DE3) transformed cells assessed as potentiation of imipenem-induced antibacterial activity by measuring imipenem MIC after 20 hrs by broth microdilution assay (reference value: 16 ug/ml)
Bacteria [5] = test: Inhibition of bacterial ImiS expressed in Escherichia coli BL21 (DE3) transformed cells assessed as potentiation of imipenem-induced antibacterial activity by measuring imipenem MIC after 20 hrs by broth microdilution assay (reference value: 1 ug/ml)
Escherichia coli = test: Antibacterial activity against Escherichia coli BL21(DE3) at 16 ug/ml after 20 hrs by broth microdilution assay; assay type: functional, organism-based
Bacteria [6] = test: Inhibition of bacterial ImiS expressed in Escherichia coli BL21 (DE3) transformed cells at 500 uM using imipenem as substrate by UV spectrometry
[7] = Inhibition of bacterial NDM1 expressed in Escherichia coli DH5R transformed cells using imipenem as substrate by UV spectrometry; parameters: species or system Bacteria
Bacteria [8] = test: Competitive inhibition of bacterial ImiS expressed in Escherichia coli BL21 (DE3) transformed cells using imipenem as substrate after 5 mins by Lineweaver-Burk plot method
Bacteria [9] = test: Uncompetitive inhibition of bacterial ImiS expressed in Escherichia coli BL21 (DE3) transformed cells using imipenem as substrate after 5 mins by Lineweaver-Burk plot method
Bacteria [10] = test: Uncompetitive inhibition of bacterial NDM-1 expressed in Escherichia coli BL21 (DE3) transformed cells using imipenem as substrate after 5 mins by Lineweaver-Burk plot method
Bacteria [11] = test: Competitive inhibition of bacterial NDM-1 expressed in Escherichia coli BL21 (DE3) transformed cells using imipenem as substrate after 5 mins by Lineweaver-Burk plot method

| IC50 [2] [µM] | MIC (Bacteria [4]) [µg/mL] | MIC (Bacteria [5]) [µg/mL] | IC50 [7] [µM] | SMILES | inhibition (Bacteria [1]) | inhibition (Bacteria [3]) | Activity (Escherichia coli) | inhibition (Bacteria [6]) | Kic (Bacteria [8]) [nM] | Kiuc (Bacteria [9]) [nM] | Kiuc (Bacteria [10]) [nM] | Kic (Bacteria [11]) [nM] |
| --- | --- | --- | --- | --- | --- | --- | --- | --- | --- | --- | --- | --- |
| 18 | 16 | 0.5 | – | O=C(CSc1nnc(Cc2ccccc2)s1)Nc1nc2ccccc2[nH]1 | inactive | inactive | inactive | – | – | – | – | – |
| – | 4 | 1 | 0.73 | Nn1c(Cc2ccccc2)nnc1SCC(=O)Nc1nc2ccc([N+](=O)[O-])cc2[nH]1 | inactive | – | inactive | inactive | – | – | – | – |
| 196 | 16 | 0.5 | – | O=C(CSc1nnc(-c2ccccc2O)s1)Nc1nc2ccccc2o1 | inactive | inactive | inactive | – | – | – | – | – |
| 384 | 32 | 0.5 | – | O=C(CSc1nnc(Cc2ccccc2)o1)Nc1nc2ccccc2o1 | inactive | inactive | inactive | – | – | – | – | – |
| 1.7 | 16 | 0.25 | – | Nc1ccccc1-c1nnc(SCC(=O)Nc2nc3ccccc3[nH]2)o1 | inactive | inactive | inactive | – | – | – | – | – |
| 29 | 16 | 0.5 | – | Nn1c(Cc2ccccc2)nnc1SCC(=O)Nc1nc2ccccc2o1 | inactive | inactive | inactive | – | – | – | – | – |
| – | 8 | 1 | 1.1 | Nc1ccccc1-c1nnc(SCC(=O)Nc2nc3ccc([N+](=O)[O-])cc3[nH]2)n1N | inactive | – | inactive | inactive | – | – | – | – |
| – | 8 | 1 | 5.9 | O=C(CSc1nnc(-c2ccccc2O)[nH]1)Nc1nc2ccc([N+](=O)[O-])cc2[nH]1 | inactive | – | inactive | inactive | – | – | – | – |
| 0.077 | 16 | 0.25 | – | Nn1c(Cc2cccs2)nnc1SCC(=O)Nc1nc2ccccc2[nH]1 | inactive | inactive | inactive | – | 110 | 80 | – | – |
| – | 8 | 1 | 6.4 | O=C(CSc1nnc(-c2ccccc2O)s1)Nc1nc2ccc([N+](=O)[O-])cc2[nH]1 | inactive | – | inactive | inactive | – | – | – | – |
| 0.39 | 16 | 0.25 | – | O=C(CSc1nnc(CCc2nnc(SCC(=O)Nc3nc4ccccc4[nH]3)s2)s1)Nc1nc2ccccc2[nH]1 | inactive | inactive | inactive | – | – | – | – | – |
| 1.8 | 16 | 0.5 | – | O=C(CSc1nnc(-c2cccc([N+](=O)[O-])c2)s1)Nc1nc2ccccc2[nH]1 | inactive | inactive | inactive | – | – | – | – | – |
| 53 | 16 | 0.5 | – | Nn1c(Cc2cccs2)nnc1SCC(=O)Nc1nc2ccccc2o1 | inactive | inactive | inactive | – | – | – | – | – |
| 0.015 | 16 | 0.25 | – | Nc1ccccc1-c1nnc(SCC(=O)Nc2nc3ccccc3[nH]2)n1N | inactive | inactive | inactive | – | 22 | 11 | – | – |
| 133 | 16 | 0.5 | – | O=C(CSc1nnc(-c2cccc([N+](=O)[O-])c2)s1)Nc1nc2ccccc2o1 | inactive | inactive | inactive | – | – | – | – | – |
| 0.94 | 16 | 0.5 | – | Nc1ccccc1-c1nnc(SCC(=O)Nc2nc3ccccc3[nH]2)[nH]1 | inactive | inactive | inactive | – | – | – | – | – |
| – | 8 | 1 | 1.3 | O=C(CSc1nnc(-c2ccccc2O)o1)Nc1nc2ccc([N+](=O)[O-])cc2[nH]1 | inactive | – | inactive | inactive | – | – | – | – |
| 0.63 | 16 | 0.5 | – | O=C(CSc1nnc(-c2ccccc2O)o1)Nc1nc2ccccc2[nH]1 | inactive | inactive | inactive | – | – | – | – | – |
| – | 8 | 1 | 5.1 | O=C(CSc1nnc(-c2cccc([N+](=O)[O-])c2)s1)Nc1nc2ccc([N+](=O)[O-])cc2[nH]1 | inactive | – | inactive | inactive | – | – | – | – |
| 0.27 | 16 | 0.5 | – | Nn1c(Cc2ccccc2)nnc1SCC(=O)Nc1nc2ccccc2[nH]1 | inactive | inactive | inactive | – | – | – | – | – |
| 0.33 | 16 | 0.5 | – | O=C(CSc1nnc(-c2ccccc2O)s1)Nc1nc2ccccc2[nH]1 | inactive | inactive | inactive | – | – | – | – | – |
| – | 4 | 1 | 0.17 | Nc1ccccc1-c1nnc(SCC(=O)Nc2nc3ccc([N+](=O)[O-])cc3[nH]2)[nH]1 | inactive | – | inactive | inactive | – | – | 310 | 550 |
| – | 8 | 2 | 2.5 | Nc1ccccc1-c1nnc(SCC(=O)Nc2nc3ccc([N+](=O)[O-])cc3[nH]2)s1 | inactive | – | inactive | inactive | – | – | – | – |
| – | 4 | 1 | 0.5 | O=C(CSc1nnc(Cc2ccccc2)o1)Nc1nc2ccc([N+](=O)[O-])cc2[nH]1 | inactive | – | inactive | inactive | – | – | – | – |
| 3 | 16 | 0.25 | – | O=C(CSc1nnc(Cc2ccccc2)o1)Nc1nc2ccccc2[nH]1 | inactive | inactive | inactive | – | – | – | – | – |
| 378 | 16 | 0.25 | – | O=C(CSc1nnc(-c2cccc([N+](=O)[O-])c2)[nH]1)Nc1nc2ccccc2o1 | inactive | inactive | inactive | – | – | – | – | – |
| 1.2 | 32 | 0.5 | – | Nc1ccccc1-c1nnc(SCC(=O)Nc2nc3ccccc3[nH]2)s1 | inactive | inactive | inactive | – | – | – | – | – |
| 259 | 16 | 0.5 | – | O=C(CSc1nnc(Cc2ccccc2)s1)Nc1nc2ccccc2o1 | inactive | inactive | inactive | – | – | – | – | – |
